Measured values reported in ChEMBL document CHEMBL5523719, “Structure-activity relationship study of new carbazole sulfonamide derivatives as anticancer agents with dual-target mechanism” (Eur J Med Chem, 2024).
Each block holds one compound with its values, some of them ahead of it.

Columns and labels:
[1] = Solubility of the compound; format: physicochemical
Bel-7402 = experiment: Antiproliferation activity against human Bel-7402 cells measured after 72 hrs incubation by MTT assay; format: functional, cell-based; details: Bel-7402, 72 h
MDA-MB-231 = experiment: Antiproliferation activity against human MDA-MB-231 cells measured after 72 hrs incubation by MTT assay; format: functional, cell-based; details: MDA-MB-231, 72 h
MIA PaCa-2 = experiment: Antiproliferation activity against human MIA PaCa-2 cells measured after 72 hrs incubation by MTT assay; format: functional, cell-based; details: MIA PaCa-2, 72 h
NCI-H460 = experiment: Antiproliferation activity against human NCI-H460 cells measured after 72 hrs incubation by MTT assay; format: functional, cell-based; details: NCI-H460, 72 h
KB = experiment: Antiproliferation activity against human KB cells measured after 72 hrs incubation by MTT assay; format: functional, cell-based
L02 = experiment: Antiproliferation activity against human L02 cells measured after 72 hrs incubation by MTT assay; format: functional, cell-based; details: L02, 72 h
HepG2 [2] = experiment: In vivo antitumor activity against human HepG2 cells xenografted in mouse assessed as inhibition of tumor growth treated iv every other day for 22 days; format: functional, organism-based; details: time 22.0 day
HepG2 [3] = experiment: In vivo antitumor activity against human HepG2 cells xenografted in mouse assessed as inhibition of tumor growth treated at 20 mg/kg, iv every other day for 22 days relative to control; format: functional; details: HepG2, 528 h, time 22 day, read-out: TGI
[4] = Toxicity in mouse xenografted with human HepG2 cells assessed as body weight change at 10 to 20 mg/kg, iv every other day for 22 days; format: organism-based; details: in vivo, 528 h, dose 10-20 mg/kg, time 22 day
[5] = Initial plasma concentration in Sprague-Dawley rat at 10 mg/kg, iv; format: ADME, organism-based
[6] = Half life in Sprague-Dawley rat at 10 mg/kg, iv; format: ADME, organism-based; details: in vivo
[7] = Clearance in Sprague-Dawley rat at 10 mg/kg, iv; format: ADME, organism-based; details: in vivo
[8] = AUC (0 to last) in Sprague-Dawley rat at 10 mg/kg, iv; format: ADME, organism-based; details: in vivo
[9] = MRT (0 to last) in Sprague-Dawley rat at 10 mg/kg, iv; format: ADME, organism-based; details: in vivo
MCF7 [10] = experiment: Antiproliferation activity against human MCF7 cells measured after 72 hrs incubation by MTT assay; format: functional, cell-based; details: MCF7, 72 h
NCI/ADR-RES = experiment: Antiproliferation activity against human MCF7/ADR cells measured after 72 hrs incubation by MTT assay; format: functional, cell-based
MCF7 [11] = experiment: Induction of cell cycle arrest in human MCF7 cells assessed as accumulation of cells at G2/M phase at 500 nM measured after 24 hrs by flow cytometry (reference value: 22.84%); format: functional
MCF7 [12] = experiment: Induction of cell cycle arrest in human MCF7 cells assessed as accumulation of cells at G0/G1 phase at 500 nM measured after 24 hrs by flow cytometry (reference value: 61.73%); format: functional
HMEC-1 = experiment: Anti-proliferative activity against human HMEC-1 cells measured after 48 hrs; format: functional, cell-based; details: HMEC-1, 48 h

- solubility [1]: < 100 µg/mL
- IC50 (Bel-7402): 520 nM
- IC50 (MDA-MB-231): 35.4 nM
- IC50 (MIA PaCa-2): 58.3 nM
- IC50 (NCI-H460): 33 nM
- IC50 (KB): 40.4 nM
Structure (SMILES): COc1ccc(NS(=O)(=O)c2ccc3c(c2)c2ccc(N)cc2n3C)c(OC)n1
- IC50 (L02): 109 nM

- solubility [1]: 4000 µg/mL
- IC50 (Bel-7402): 480 nM
- C0 [5]: 22000 ng/mL
- half-life [6]: 34.4 min
- clearance [7]: 72.9 mL/min/kg
- AUC(0-t) [8]: 2290 ng·h/mL
- MRT last [9]: 7.26 min
Structure (SMILES): COc1ccc(NS(=O)(=O)c2ccc3c(c2)c2ccc(NC(=O)[C@@H](N)C(C)C)cc2n3C)c(OC)n1.Cl
- TGI (HepG2 [2]): Dose-Dependent Effect
- inhibition in vivo at 20 mg/kg (HepG2 [3]): 71%
- Activity [4]: Non-Toxic

Structure (SMILES): COc1ccc(/C=C\c2cc(OC)c(OC)c(OC)c2)cc1O [COMBRETASTATIN A4]
- IC50 (MCF7 [10]): 32.7 nM
- IC50 (NCI/ADR-RES): 12.5 nM
- Activity (MCF7 [11]): 3.4%
- Activity (MCF7 [12]): 3.41%
- IC50 (HMEC-1): 6.42 nM

- IC50 (MCF7 [10]): 28.7 nM
Structure (SMILES): CC(=O)O[C@H]1C(=O)[C@@]2(C)[C@H]([C@H](OC(=O)c3ccccc3)[C@]3(O)C[C@H](OC(=O)[C@H](O)[C@@H](NC(=O)c4ccccc4)c4ccccc4)C(C)=C1C3(C)C)[C@]1(OC(C)=O)CO[C@@H]1C[C@@H]2O [PACLITAXEL]
- IC50 (NCI/ADR-RES): 464 nM
